Source: publication PMC10994559 (PLOS Neglected Tropical Diseases, 2024)
“And” between values parts separate entries of the source, which are not always exact repeats. Equal values may be shown once. “Also recorded” adds a separate entry of the source. Read-outs that look alike come from different tables or passages of the source.

Experiments:
[1] = system: L. infantum promastigotes; experiment: L. infantum promastigote viability, resazurin reduction; format: cell-based, Leishmania infantum; conditions: Leishmania infantum, 72 h; for viability at 2.5 µM: read-out: Residual viability, L. infantum promastigote (2.5 µM); for viability at 25 µM: read-out: Residual viability, L. infantum promastigote (25 µM)
From the text: (§1) The infectivity of the parasites was boosted by passaging in Balb/c mice and culturing the infected lymph nodes after six weeks. L. infantum (MHOM / BR / 76 / M4192) parasite was passaged in the same media formulation with 0.5% urine.

[2] = system: L. major promastigotes; experiment: L. major promastigote viability, resazurin reduction; format: cell-based, Leishmania major; conditions: Leishmania major; for EC50: dose response, triplicate
From the text: as §1

[3] = system: L. major; experiment: Cutaneous leishmaniasis mouse model: lymph node parasite burden (qPCR) and footpad swelling; format: in vivo, Balb/c mice; conditions: for Parasite load in popliteal lymph nodes (qPCR kDNA) vs DMSO control: PHT-39 13.75 mg/kg i.p. daily or s.c. every other day; for Parasite load in popliteal lymph nodes (qPCR kDNA) vs DMSO control / Footpad swelling vs DMSO control: AmB 8 mg/kg i.p.; for Footpad swelling vs DMSO control: day 21 post challenge
Procedure: Female Balb/c mice, aged 6–8 weeks, were purchased from the breeding stock in Czech Republic (Animalab, Czech Republic). Animals were kept under standard conditions according to European ethical guidelines for experimental animals.
L. major metacyclic promastigotes were prepared from a five day stationary phase culture through Ficoll gradient centrifugation according to previous studies with minor changes: Briefly, a 20% and 10% Ficoll gradient were prepared in PBS and M199 media, respectively and placed in a 14 ml falcon tube. Then, 1x10^9 L. major promastigotes were loaded on top of gradient and centrifuged. Metacyclic parasites were collected between two layers. Four groups of mice (n = 6) were challenged by subcutaneous injection of 2x10^6 stationary phase metacyclic promastigotes (50 μl in PBS) into the left hind footpad. Two weeks after infectious challenge, animals were treated by i.p or intralesional (s.c) PHT-39 injection (13.75 mg/kg body weight), daily or every other day, respectively, for ten days. AmB (8 mg/kg body weight) was applied as positive control drug (i.p injection for ten days) and 5% DMSO in distilled water was applied as negative control (s.c injection for ten days) (Table 1).
Every four days after the challenge, body weight was monitored and footpad swelling changes were measured (Footpad swelling = (height + width)/2) with a metric caliper (Kroeplin, IP65, D-series, external measuring gauge).
After the 10 days course of treatment all animals were sacrificed, and popliteal lymph nodes of each infected footpad were collected for parasite load determination. Genomic DNA was extracted from the lymph nodes (DNeasy Blood and Tissue kit, Qiagen). Equal concentration of samples (125 ng) was applied to quantify leishmania kDNA with primers RV1(forward: 5’-[…]-3’) and RV2 (reverse: 5’-CCACCTG […]-3’). qPCR data was normalized using the murine house-keeping gene GAPDH amplified with primers (forward:5’[…]3’; reverse: 5’[…]3’) in parallel using Maxima SYBR green qPCR master (Thermo). qPCR was performed using Biorad CFX96 device with 95°C/ 10 min (initial denaturation), then 95°C/15s (denaturation), 60°C /30s (annealing) and 72°C/ 40s (extension) over 40 cycles. For ΔCT calculation of samples, every CT were subtracted from the same on GAPDH. Then, ΔΔCT of each group was normalized according to negative control group (DMSO).
The most significant requirement of an anti-leishmanial drug is its ability to reduce the parasite burden in the infected host. […] Briefly, four groups of 6–8 weeks Balb/c mice were challenged with 2 x 10^6 L. major promastigotes subcutaneously injected into the hind footpad. Treatment started after two weeks when a wound started to form. Two groups were treated with PHT-39 compound at doses of 13.75 mg/kg either via i.p route, daily, or s.c route, every other day for 10 days. One group received a daily dosage of AmB as a control, and another infected non-treated group was included in the study. After 10 days, popliteal lymph nodes were collected to assess parasite burden and immune response stimulation was studied in spleen cell culture supernatants.

[4] = system: T. cruzi trypomastigotes; experiment: T. cruzi viability, resazurin reduction; format: cell-based, Trypanosoma cruzi; conditions: 72 h; for viability at 2.5 µM / viability at 25 µM: Trypanosoma cruzi; for viability at 2.5 µM: read-out: Residual viability, T.cruzi (2.5 µM), 2.5 µM, 72 h; for viability at 25 µM: read-out: Residual viability, T.cruzi (25 µM), 25 µM, 72 h
Procedure, shortened: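 Y-strain trypomastigotes kept in supplemented liver infusion tryptose broth with 10% FCS, pH 7.2, at 28°C. Viability by fluorescence resazurin reduction; single-point screen at 2.5 μM, then 18-concentration dose response. Amphotericin B as control drug.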

[5] = system: Murine macrophage cells (J774); experiment: Cytotoxicity assay J774, resazurin reduction; format: cell-based; conditions: cytotoxicity, 72 h
Procedure, shortened: (§2)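 J774 and HepG2 cells were seeded at 0.5x10^5 cell/well and exposed to serially diluted compounds for 72 h at 37°C, 5% CO2. Viability was read by fluorescence resazurin reduction (λEx 550 nm, λEm 590 nm).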

[6] = Cytotoxicity assay J774, resazurin reduction; format: cell-based, murine; conditions: mouse, J774 macrophage cells, cytotoxicity, 72 h; for viability at 72 h, 2.5 µM: read-out: Residual viability, J774 (2.5 µM); for viability at 72 h, 25 µM: read-out: Residual viability, J774 (25 µM)
Procedure, shortened: as §2

[7] = system: intracellular L. infantum amastigotes; experiment: Parasite rescue assay (intramacrophage, J774 infected with L. infantum); format: cell-based, Leishmania infantum
[8] = PHT-39 13.75 mg/kg i.p. or s.c.
[9] = Leishmania infantum, J774, read-out: EC50 L. infantum rescue assay, intramacrophage (J774), 18 concentrations

Structure (SMILES): CC[C@@H](C)[C@H](c1nc2ccccc2n1Cc1cn(-c2ccc(C(F)(F)F)cc2)nn1)N1C(=O)c2ccccc2C1=O [PHT-39]
- viability at 2.5 µM [1]: 58.8 ± 1.22%
- viability at 25 µM [1]: 7.71 ± 1.03%
- viability at 25 µM ([2]; 72 h, read-out: Residual viability, L.major promastigote (25 µM)): 16.6 ± 1.6%
- EC50 [2]: 5.9 ± 1.8 µM
- Parasite load in popliteal lymph nodes (qPCR kDNA) vs DMSO control ([3]; 10 days): did not show a significant difference; also recorded: not significantly changed
- Elimination of L. major infection in cutaneous leishmaniasis model ([3]; PHT-39 13.75 mg/kg i.p. or s.c., 10 days, 13.75 mg/kg): unable to eradicate L. major infection; also recorded: failed to eliminate the Leishmania infection
- Parasite burden in lymph nodes ([3]; PHT-39 13.75 mg/kg s.c. every other day): lower but insignificant parasite burden
- Footpad swelling vs DMSO control [3, 8]: Neither of the test groups showed significant difference with the DMSO control; also recorded: did not show any significant changes
- viability at 2.5 µM [4]: 57.6 ± 1.04%
- viability at 25 µM [4]: 31.5 ± 1.51%
- EC50 ([5]; Mus musculus, J774, 72 h): > 16 µM
- viability at 72 h, 2.5 µM [6]: 98.3 ± 2.92%
- viability at 72 h, 25 µM [6]: 68 ± 9.09%
- EC50 [7, 9]: 1.2 ± 3.2 µM
- viability at 25 µM ([7]; Leishmania infantum, J774, rescue assay in J774, 25 µM, read-out: Residual viability, intracellular L. infantum amastigote (25 µM)): 16.3%
- EC50 ([7]; read-out: EC50 L. infantum rescue assay, intramacrophage (J774), 18 concentrations, listed as PH-39): 1.21 ± 3.2 µM
- Residual viability, intracellular L. infantum amastigote (25 µM) ([7]; rescue assay in J774, 25 µM, 25 µM): 16.34±4.67%

Structure (SMILES): C[C@@H]1[C@H](O)[C@@H](C)/C=C/C=C/C=C/C=C/C=C/C=C/C=C/[C@H](O[C@@H]2O[C@H](C)[C@@H](O)[C@H](N)[C@@H]2O)C[C@@H]2O[C@](O)(C[C@@H](O)C[C@@H](O)[C@H](O)CC[C@@H](O)C[C@@H](O)CC(=O)O[C@H]1C)C[C@H](O)[C@H]2C(=O)O [AmB, amphotericin B, reference compound]
- viability at 2.5 µM [1]: 2.55 ± 0.17%
- viability at 25 µM [1]: 5.4 ± 0.73%
- EC50 [2]: 0.2 µM
- Parasite load in popliteal lymph nodes (qPCR kDNA) vs DMSO control ([3]; 10 days): reduce the parasite load significantly; also recorded: reduction of parasite load in the AmB group was significant
- Footpad swelling vs DMSO control [3, 8]: reduced significantly; also recorded: effectively reduced the swelling
- Residual viability, T.cruzi (25 µM) ([4]; 25 µM): 7.37±1.09%
- viability at 2.5 µM [4]: 8.07 ± 0.38%
- viability at 25 µM [4]: 7.4%
- EC50 ([5]; Mus musculus, J774, 72 h): > 10 µM
- EC50 [5]: > 16 µM
- viability at 72 h, 2.5 µM [6]: 101 ± 11.8%
- viability at 72 h, 25 µM [6]: 57.73 ± 0.52%
- EC50 [7, 9]: 0.6 µM
- viability at 25 µM ([7]; Leishmania infantum, J774, read-out: Residual viability, intracellular L. infantum amastigote (25 µM)): 15.4 ± 6.9%
- EC50 ([7]; read-out: EC50 L. infantum rescue assay, intramacrophage (J774), 18 concentrations): 0.7 µM and 0.66 µM
